Assay results: PubChem BioAssay (NCI)
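96-well plates; 48 h exposure; 5 concentrations. Endpoints by linear interpolation between flanking doses. Not reached: highest tested concentration assigned. GI50: concentration for 50% inhibition of growth. TGI denotes the concentration required for complete inhibition of growth.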

Experiments:
Assay in all cases: NCI-60 cell line screen, 48 h
SW-620 colon = tested on: SW-620 colon
LOX IMVI melanoma = tested on: LOX IMVI melanoma
SK-OV-3 ovarian = tested on: SK-OV-3 ovarian
HL-60(TB) leukemia = tested on: HL-60(TB) leukemia
SF-268 CNS = tested on: SF-268 CNS
SK-MEL-28 melanoma = tested on: SK-MEL-28 melanoma
CAKI-1 renal = tested on: CAKI-1 renal
EKVX NSCLC = tested on: EKVX NSCLC
MOLT-4 leukemia = tested on: MOLT-4 leukemia
HCC-2998 colon = tested on: HCC-2998 colon

Row | Structure (SMILES) | TGI (SW-620 colon) [µM] | TGI (LOX IMVI melanoma) [µM] | TGI (SK-OV-3 ovarian) [µM] | TGI (HL-60(TB) leukemia) [µM] | TGI (SF-268 CNS) [µM] | TGI (SK-MEL-28 melanoma) [µM] | TGI (CAKI-1 renal) [µM] | TGI (EKVX NSCLC) [µM] | TGI (MOLT-4 leukemia) [µM] | TGI (HCC-2998 colon) [µM] | GI50 (SW-620 colon) [µM] | GI50 (LOX IMVI melanoma) [µM] | GI50 (SK-OV-3 ovarian) [µM] | GI50 (HL-60(TB) leukemia) [µM] | GI50 (SF-268 CNS) [µM] | GI50 (SK-MEL-28 melanoma) [µM] | GI50 (CAKI-1 renal) [µM] | GI50 (EKVX NSCLC) [µM] | GI50 (MOLT-4 leukemia) [µM] | GI50 (HCC-2998 colon) [µM]
1 | COc1ccc2c(c1)Cc1cc(N=[N+]([O-])c3ccc4c(c3)Cc3cc(OC)ccc3-4)ccc1-2 | > 100 | 97.7 | > 100 | > 100 | > 100 | > 100 | > 100 | > 100 | > 100 | 27.3 | – | – | – | – | – | – | – | – | – | –
2 | CC(=N\O)/C(C)=N/O.CC(=N\O)/C(C)=N/O.[Pd] | > 10 | 3.16 | > 10 | > 10 | > 10 | 9.48 | > 10 | > 10 | > 10 | > 10 | 3.44 | 1.58 | 7.62 | 4 | 6.95 | 3.87 | > 10 | 6.71 | > 10 | > 10
3 | Clc1cc(Cl)c2n[se]nc2c1 | > 100 | > 100 | > 100 | > 100 | > 100 | > 100 | > 100 | > 100 | > 100 | > 100 | – | – | – | – | – | – | – | – | – | –
4 | COc1ccc(-n2cc(-c3ccc(Cl)cc3)[nH]c2=S)cc1Cl | > 100 | > 100 | 52.6 | > 100 | 76.5 | > 100 | 56.7 | > 100 | > 100 | > 100 | > 100 | 94 | 23.6 | > 100 | 28 | 36.5 | 24.3 | 42.8 | 43 | 57.4
5 | COC1=C(NC(C)=O)C(=O)c2nc3n(c2C1=O)CCC3 | 42.4 | 31.8 | > 100 | > 30.4 | 33.2 | 32.9 | 32.8 | 38.9 | > 66.8 | 65.8 | – | – | – | – | – | – | – | – | – | –
6 | CC(C)n1c2c(c3ccccc3c1=O)C(=O)c1ccccc1-2 | > 100 | > 100 | > 100 | > 100 | > 100 | > 100 | > 100 | > 100 | > 100 | > 100 | – | – | – | – | – | – | – | – | – | –
7 | O=C(/C=C(\O)C(=O)O)/C=C(\O)c1ccc(Cl)cc1 | > 100 | > 100 | > 100 | > 100 | > 100 | > 100 | > 100 | > 100 | > 100 | > 100 | – | – | – | – | – | – | – | – | – | –
8 | COC(=O)c1nc(N)[nH]c(=O)c1-c1ccc(Cl)cc1 | > 100 | > 100 | > 100 | > 100 | > 100 | > 100 | > 100 | > 100 | > 100 | > 100 | – | – | – | – | – | – | – | – | – | –
9 | CC(=O)c1c[nH]c2ccc(-c3ccnc(Nc4ccc(NC(=O)c5cccc(F)c5)c(CN5CCOCC5)c4)n3)cc12 | 4.82 | 0.45 | > 100 | 0.928 | 2.49 | 4.25 | 5.02 | 1.52 | > 100 | 16.6 | 0.206 | 0.0604 | 0.562 | 0.242 | 0.225 | 0.233 | 0.0526 | 0.239 | 0.262 | 0.292
10 | Cc1ccc(NC(=O)C(=O)C2C(=O)C3=C(CC2(C)C)NC2C=CC=CC2S3)c(C)c1 (centres undefined) | > 100 | > 100 | > 100 | > 100 | > 100 | > 100 | > 100 | > 100 | > 100 | > 100 | – | – | – | – | – | – | – | – | – | –
11 | CC([C@H]1CCC2C3CCC4C(=O)C(NC=O)=CC[C@]4(C)C3CC[C@@]21C)N(C)C (some centres undefined) | 5.54 | 4.02 | 12.9 | 4.95 | 5.48 | 3.55 | 33.5 | 50.7 | 10.2 | 14.7 | 2.13 | 1.78 | 4.03 | 1.86 | 2.17 | 1.86 | 3.79 | 3.01 | 2.55 | 4.09
12 | COC1=C(C(=O)OC(C)(C)C)C23CCCCC2(C(C(=O)OC(C)(C)C)=C(OC)C3C(=O)OC(C)(C)C)C1C(=O)OC(C)(C)C (centres undefined) | > 100 | > 100 | > 100 | 63.1 | > 100 | – | > 100 | > 100 | 44.4 | > 100 | – | – | – | – | – | – | – | – | – | –
13 | COC1=CC(=O)c2c(O)c3c(c(O)c2C1=O)CC(C)(O)OC3 (centres undefined) | 12.7 | 12.9 | 58.9 | 24.2 | > 100 | 31.5 | 16.5 | 18.7 | 8.68 | 13.9 | – | – | – | – | – | – | – | – | – | –
14 | COC(=O)c1ccc2c(c1)[n+](=O)c(C(C)=O)c(C(F)(F)F)n2[O-] | 3.83 | 3.2 | 4.48 | 7.87 | 3.24 | 13.2 | 5.07 | 4.35 | 17.6 | 3.18 | 1.95 | 1.7 | 2.22 | 1.94 | 1.76 | 4.31 | 1.94 | 1.94 | 2.95 | 1.78
15 | Cn1c(=O)c(C2c3ccccc3Oc3c2c(=O)n(C)c2ccccc32)c(O)c2ccccc21 (centres undefined) | > 100 | > 100 | > 100 | 79.2 | > 100 | > 100 | > 100 | > 100 | > 100 | > 100 | – | – | – | – | – | – | – | – | – | –
16 | COc1ccc(NC(=O)CC(=O)n2nc(-c3ccccc3)c(N=Nc3ccc(C)cc3)c2-c2ccccc2)cc1 | > 100 | > 100 | 40 | > 100 | 53.4 | > 100 | > 100 | > 51.4 | > 100 | > 100 | – | – | – | – | – | – | – | – | – | –
17 | Cc1cc(C)cc(NC(=O)CCC(=O)C2CCC/C2=N\NC(=O)C(=O)NN)c1 (centres undefined) | > 100 | > 100 | > 100 | > 100 | > 100 | > 100 | > 100 | > 100 | > 100 | > 100 | – | – | – | – | – | – | – | – | – | –
